For the assay, the target named is Hepatocyte growth factor receptor (Homo sapiens, UniProt P08581). Description: Met Kinase Inhibition Assay. As to conditions: pH 7.5; 30 °C.
Sequence of Hepatocyte growth factor receptor (P08581 whole entry): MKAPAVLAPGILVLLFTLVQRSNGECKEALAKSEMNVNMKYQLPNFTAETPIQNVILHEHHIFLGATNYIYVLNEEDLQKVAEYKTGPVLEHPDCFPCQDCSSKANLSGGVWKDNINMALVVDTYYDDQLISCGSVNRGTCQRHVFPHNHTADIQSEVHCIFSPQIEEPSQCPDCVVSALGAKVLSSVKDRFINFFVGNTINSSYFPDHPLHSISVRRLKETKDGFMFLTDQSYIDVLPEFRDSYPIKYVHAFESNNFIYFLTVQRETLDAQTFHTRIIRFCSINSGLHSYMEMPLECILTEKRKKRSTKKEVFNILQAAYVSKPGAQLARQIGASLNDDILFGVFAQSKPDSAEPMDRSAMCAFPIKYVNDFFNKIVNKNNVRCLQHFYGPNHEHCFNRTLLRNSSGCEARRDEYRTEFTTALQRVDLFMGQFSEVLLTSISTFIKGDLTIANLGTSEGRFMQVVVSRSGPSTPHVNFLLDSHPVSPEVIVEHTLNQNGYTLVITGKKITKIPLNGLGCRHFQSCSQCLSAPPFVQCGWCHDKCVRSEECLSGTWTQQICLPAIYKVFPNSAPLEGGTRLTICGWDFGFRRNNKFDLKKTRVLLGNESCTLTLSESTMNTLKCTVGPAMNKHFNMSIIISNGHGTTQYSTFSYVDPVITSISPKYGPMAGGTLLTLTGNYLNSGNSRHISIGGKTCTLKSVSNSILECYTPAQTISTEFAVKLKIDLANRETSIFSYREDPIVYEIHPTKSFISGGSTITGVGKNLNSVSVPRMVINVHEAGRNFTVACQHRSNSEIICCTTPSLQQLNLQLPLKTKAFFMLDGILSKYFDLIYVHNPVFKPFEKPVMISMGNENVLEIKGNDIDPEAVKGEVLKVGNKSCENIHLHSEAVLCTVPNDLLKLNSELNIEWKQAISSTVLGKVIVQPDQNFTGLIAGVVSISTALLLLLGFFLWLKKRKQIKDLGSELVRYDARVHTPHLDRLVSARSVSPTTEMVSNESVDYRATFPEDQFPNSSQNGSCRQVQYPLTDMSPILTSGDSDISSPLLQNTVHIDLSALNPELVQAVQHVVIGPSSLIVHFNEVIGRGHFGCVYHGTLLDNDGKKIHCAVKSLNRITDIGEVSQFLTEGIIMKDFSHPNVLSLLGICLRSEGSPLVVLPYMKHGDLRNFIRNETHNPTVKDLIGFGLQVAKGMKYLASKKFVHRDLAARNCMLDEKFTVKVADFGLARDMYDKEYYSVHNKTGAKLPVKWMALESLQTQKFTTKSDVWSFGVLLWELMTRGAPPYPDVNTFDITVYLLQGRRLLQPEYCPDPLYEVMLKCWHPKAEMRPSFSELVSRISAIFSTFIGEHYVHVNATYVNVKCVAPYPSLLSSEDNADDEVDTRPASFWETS

For the compound `COc1ccc(-n2cc(C(=O)Nc3ccc(Oc4ccnc5[nH]ccc45)c(F)c3)c(=O)c(-c3ccc(F)cc3)c2)cc1F` [1-(3-fluoro-4-methoxyphenyl)-N-(3-fluoro-4-{1H-pyrrolo[2,3-b]pyridin-4-yloxy}phenyl)-5-(4-fluorophenyl)-4-oxo-1,4-dihydropyridine-3-carboxamide], half-maximal inhibition (IC50) required 2.3 nM.

For the compound `O=C(Nc1ccc(Oc2ccnc3[nH]ccc23)c(F)c1)c1cn(-c2ccc(Cl)c(F)c2)cc(-c2ccc(F)cc2)c1=O` [1-(4-chloro-3-fluorophenyl)-N-(3-fluoro-4-{1H-pyrrolo[2,3-b]pyridin-4-yloxy}phenyl)-5-(4-fluorophenyl)-4-oxo-1,4-dihydropyridine-3-carboxamide], inhibition was half-maximal at 5 nM (IC50).

In general, IC50 refers to the concentration that gives 50% inhibition. Low values mean greater potency, high ones weaker potency.

The values above are taken from BindingDB's records for doi:10.1021/jm800476q (Bristol Myers Squibb, 2008).
